# Data: US20220315895A1, “METHODS OF MAKING OLIGOPOTENT AND UNIPOTENT PRECURSORS” (Transfusion Health, LLC, priority 2019, published 2022)
# Experiments:
# [1] = tested on: expanded cord blood CD34+ cells, megakaryocyte lineage (CD41, CD42b); assay: Megakaryocyte Differentiation Culture after Expansion Culture (Example 38); format: cell-based, human
# Description: At days 21 and 63, CD34+ enriched cells were placed into Differentiation Cultures, described below.
# Differentiation cultures were initiated using Erythroid, Myeloid (granulocyte and monocyte), and Megakaryocyte HemaTox kits from STEMCELL technologies following the manufacturer's instructions. In brief, lineage media was prepared by adding cytokine cocktails for erythrocyte (SCF, IL-3, and EPO), myeloid (i.e. mixed granulocyte/monocyte, SCF, TPO, G-CSF, and GM-CSF) or megakaryocyte (SCF, IL-6, IL-9 and TPO) lineage differentiation to their respective kits' media, then adding approximately 30-100 CD34+ cells for erythroid or myeloid cultures, or 300-1000 CD34+ cells for megakaryoid cultures. Exact cell numbers plated were quantified for later analysis. All incubations for Differentiation Culture took place at 3% oxygen (controlled by nitrogen) and 5% CO2.
# Following seven days of erythroid or myeloid cultures, or ten days for megakaryoid cultures, differentiated cell output was quantified using flow cytometry. Erythroid output was quantified using anti-CD71 and anti-CD235a antibodies, and megakaryocyte lineage output was quantified using anti-CD41 and anti-CD42b antibodies. Granulocyte and monocyte lineage outputs were assessed in tandem, using CD14 and CD15 antibodies, with granulocyte lineage cells being CD15+/CD14−, and monocyte lineage cells being CD14+/CD15−.
# A number of quantities were calculated to assess the effect of expansion of CD34+ cells in the +Formula I Condition on the output of lineage differentiated cells. “Per-Assayed-CD34+ Cell Output” describes the output of differentiated cells per CD34+ cell placed into Differentiation Culture, and is calculated by dividing the total number of lineage-positive cells by the input CD34+ cell number quantified at Differentiation Culture initiation at day 1, 21, or 63. […]
# [2] = tested on: CD3+ and CD3+/CD8+ T cells; assay: T-cell Maturation and CD8 Maturation Culture (Example 41); format: cell-based, human
# Description: Following 14 days in Lymphoid Progenitor Differentiation Cultures, cells were placed into T- and NK-cell Maturation Cultures.
# For T-cell Maturation Cultures, 24-well non-TC-treated plates were coated with StemSpan Lymphoid Differentiation Coating Material (STEMCELL Technologies) according to the manufacturer's instructions. Immediately prior to initiation of T-cell Maturation Culture, wells were washed with PBS. Cells from L Diff Cultures were plated at 50,000 cells/well in 500 μl of T Cell Progenitor Maturation Medium, comprising StemSpan SFEM II medium with StemSpan T Cell Progenitor Maturation Supplement.
# Following 4 days of culture, NK- and T-cell Maturation Cultures' medias were replenished by adding an equal volume of the same culture media added on day 14. At days 21 and 25 of NK- or T-cell Maturation Cultures, half-media changes were performed by removing half of the total volume of media without disturbing cells and adding media freshly prepared as on day 14.
# Following 7 and 14 days in NK- and T-cell Maturation Culture (21 and 28 days from initiation of Lymphoid Differentiation Culture, respectively), cells were stained with antibodies to CD56, CD3, CD161, CD94, and CD16 and analyzed via flow cytometry to quantify T and NK lineage phenotypes.
# T-cell Maturation Cultures were continued for an additional 14 days, plated at 50,000-75,000 cells/well into 24-well non-TC-treated plates freshly coated with Lymphoid Differentiation Coating Material as above. Cultures were continued for this 14 day-period with half-media changes every 3-4 days.
# Following a total of 42 days in Lymphoid Progenitor Differentiation and T-cell Maturation cultures, T cells from 14-day+Formula I-expanded L Diff Culture and 14-day DMSO-expanded L Diff Culture were placed into CD8 Maturation Culture as follows: A 24-well plate was coated with Lymphocyte Differentiation Coating Medium as above. […] Following 6 days in this maturation medium, cells were analyzed for mature T cell phenotypes by staining for CD3, CD8a, CD4, CD56 and performing flow cytometry on an Attune N×T flow cytometer. […]
# [3] = CD8, Lymphoid Diff day 49, +Formula I-expanded CD34+ cells
smiles,measurement,setting,value
CC(C)(C)C(=O)Nc1ccc2c(c1)C(O)c1ccccc1-2 (stereo not drawn) [Compound 1.010],"fold increase of per-expanded-day-1-CD34+ cell output, total megakaryocyte lineage, over uncultured cells","[1]; +Formula I expansion to day 21, then 10 days differentiation",18 fold
same,"fold increase of per-expanded-day-1-CD34+ cell output, total megakaryocyte lineage, over uncultured cells","[1]; +Formula I expansion to day 63, then 10 days differentiation","3,400 fold"
same,CD42b+ cells of CD41+ cells,"[1]; Formula I-expanded, either 21 or 63 days of prior Expansion Cell Culture, Megakaryocyte Differentiation Culture",approximately 50%
same,% Mature cells: CD4+/CD8α+ of Live/CD3+/CD56−,[2]; [3],0.5%
same,% Mature cells: CD4−/CD8α+ of Live/CD3+/CD56−,[2]; [3],95%
same,"CD8a+ cells, of CD3+ cells",[2]; CD34+ cells first expanded for 14 days in +Formula I conditions,95%
